One series deals with Haemonchus contortus. Kind of series: In vitro assay with Haemonchus contortus (HAEMCO), larval mortality. The settings on record: 120 h; for mortality at 20 ppm: read-out: activity (larval mortality). On the procedure:
In Vitro Assay with Haemonchus contortus (HAEMCO)
(§1) Solvent: Dimethyl Sulfoxide
(§2) To produce a suitable preparation of active compound, 10 mg of active compound are dissolved in 0.5 ml solvent, and the concentrate is diluted with “Ringer's solution” to the desired concentration.
Approximately 40 larvae of the red stomach worm (Haemonchus contortus) are transferred into a test tube containing compound solution.
After 5 days percentage of larval mortality are recorded. 100% efficacy means all larvae are killed, 0% efficacy means no larvae are killed.

The nature of series [1]: LogP by HPLC on reversed phase columns (EEC directive 79/831 Annex V.A8). The format is physicochemical. On the procedure:
Calibration was done with straight-chain alkan2-ones (with 3 to 16 carbon atoms) with known Log P values (measurement of Log P values using retention times with linear interpolation between successive alkanones). Lambda-max-values were determined using UV-spectra from 200 nm to 400 nm and the peak values of the chromatographic signals.

Another series concerns Cooperia curticei. Briefly: In vitro assay with Cooperia curticei (COOPCU), larval mortality. The conditions noted are these: 120 h, read-out: activity (larval mortality). How it is done:
In Vitro Assay with Cooperia curticei (COOPCU)
as §1, §2
Approximately 40 nematode larvae (Cooperia curticei) are transferred into a test tube containing the compound solution.
After 5 days percentage of larval mortality is recorded. 100% efficacy means all larvae are killed; 0% efficacy means no larvae are killed.

Series [2] relates to Nippostrongylus brasiliensis. Kind of series: In vitro assay with Nippostrongylus brasiliensis (NIPOBR), acetylcholine esterase readout. The conditions noted are these: adult worms, read-out: activity (reduction of AChE compared to negative control); for inhibition at 1 ppm: 1 ppm (1 μg/ml); for inhibition at 10 ppm: 10 ppm (10 μg/ml). How it is done:
In Vitro Assay with Nippostrongylus brasiliensis (NIPOBR)
Adult Nippostrongylus brasiliensis were washed with saline buffer containing 100 U/ml penicillin, 0.1 mg/ml streptomycin and 2.5 μg/ml amphotericin B. Test compounds were dissolved in DMSO and worms were incubated in medium in a final concentration of 10 μg/ml (10 ppm) respectively 1 μg/ml (1 ppm). An aliquot of the medium was used to determine the acetylcholine esterase activity in comparison to a negative control. The principle of measuring acetylcholine esterase as readout for anthelmintic activity was described in Rapson et al (1986) and Rapson et al (1987).

The next series has as its system Meloidogyne incognita. Kind of series: Meloidogyne incognita (MELGIN) assay, gall formation on salad seedlings. The series is classed as in vivo. The conditions noted are these: 336 h, after 14 days, read-out: nematicidal activity (percentage of gall formation; 100% = no galls). On the procedure:
Meloidogyne incognita (MELGIN) Assay
Solvent: 125.0 parts by weight of acetone
To produce a suitable preparation of active compound, 1 part by weight of active compound is mixed with the stated amount of solvent, and the concentrate is diluted with water to the desired concentration.
Vessels are filled with sand, a solution of the active ingredient, a suspension containing eggs and larvae of the southern root-knot nematode (Meloidogyne incognita) and salad seeds. The salad seeds germinate and the seedlings grow. Galls develop in the roots.
After 14 days the nematicidal activity is determined on the basis of the percentage of gall formation. 100% means no galls were found and 0% means the number of galls found on the roots of the treated plants was equal to that in untreated control plants.

The structures appear in SMILES notation. Read-outs that look alike come from different tables or passages of the source.

In the case of `O=C(NCC(F)(F)c1ncc(-c2ccccc2)cc1Cl)c1ccccc1C(F)(F)F` [Example 5], in the series with Haemonchus contortus, the mortality (in general, the share of the test organisms that died) at 20 ppm came out at 100%. For the same compound, the chromatographic logP in series [1] (logP (HCOOH) [a]) was found to be 3.75. Besides, the mortality at 20 ppm in the series with Cooperia curticei is 100%. In addition, in series [2], the inhibition at 1 ppm is at least 60% and the inhibition at 10 ppm was at least 60%. Further, the pest or weed control at 20 ppm with Meloidogyne incognita came out at 90%.

For the compound `COc1ccc(-c2cnc(C(F)(F)CNC(=O)c3ccccc3C(F)(F)F)c(Cl)c2)cc1` [Example 7], in the series with Haemonchus contortus (20 ppm, after 5 days), the mortality at 20 ppm stood at 100%. Besides, the chromatographic logP in series [1] (LC-UV, acidic range, 0.1% formic acid in water and acetonitrile, read-out: logP (HCOOH) [a]) stood at 3.68. Besides, the mortality at 20 ppm in the series on Cooperia curticei is 100%. In addition, in series [2], the inhibition at 1 ppm is at least 60% and the inhibition at 10 ppm was at least 60%. Further, in the series with Meloidogyne incognita, the pest or weed control at 20 ppm is 100%.

In the case of `O=C(NCC(F)(F)c1ncc(-c2ccc3c(c2)OCO3)cc1Cl)c1ccccc1C(F)(F)F` [Example 8], the mortality at 20 ppm with Haemonchus contortus stood at 100%. Besides, in series [1] (logP (HCOOH) [a]), the chromatographic logP came out at 3.53. The mortality at 20 ppm with Cooperia curticei came out at 100%. In addition, in series [2], the inhibition at 1 ppm is at least 60% and the inhibition at 10 ppm was at least 60%. In addition, the pest or weed control at 20 ppm with Meloidogyne incognita was 100%.

As for `O=C(NCC(F)(F)c1ncc(-c2cc(Cl)cc(Cl)c2)cc1Cl)c1ccccc1C(F)(F)F` [Example 11], the mortality at 20 ppm in the series on Haemonchus contortus stood at 100%. Besides, in series [1] (logP (HCOOH) [a]), the chromatographic logP is 4.64. Further, the mortality at 20 ppm in the series on Cooperia curticei was 100%. In addition, in series [2], the inhibition at 1 ppm was at least 60% and the inhibition at 10 ppm is at least 60%. Besides, the pest or weed control at 20 ppm with Meloidogyne incognita stood at 90%.

Consider `O=C(NCC(F)(F)c1ncc(-c2ccc(F)c(F)c2)cc1Cl)c1ccccc1C(F)(F)F` [Example 14], for which, in the series with Haemonchus contortus, the mortality at 20 ppm was found to be 100%. This compound also came in with a chromatographic logP in series [1] (logP (HCOOH) [a]) of 3.84. The mortality at 20 ppm in the series on Cooperia curticei was found to be 100%. In addition, in series [2], the inhibition at 1 ppm is at least 60% and the inhibition at 10 ppm is at least 60%. For the same compound, the pest or weed control at 20 ppm with Meloidogyne incognita worked out at 100%.

On to `O=C(NCC(F)(F)c1ncc(-c2ccc(Cl)cc2Cl)cc1Cl)c1ccccc1C(F)(F)F` [Example 15], for which the mortality at 20 ppm in the series on Haemonchus contortus was 100%. The chromatographic logP in series [1] (logP (HCOOH) [a]) was 4.57. Also, the mortality at 20 ppm with Cooperia curticei was determined as 100%. In addition, in series [2], the inhibition at 1 ppm is at least 60% and the inhibition at 10 ppm was at least 60%. Moreover, in the series on Meloidogyne incognita, the pest or weed control at 20 ppm amounted to 90%.

For the compound `O=C(NCC(F)(F)c1ncc(-c2ccc(F)cc2)cc1Cl)c1ccccc1C(F)(F)F` [Example 24], the Emax at 0.8 ppm with Haemonchus contortus (HAEMCO, 0.8 ppm, 5dat, comparative example, read-out: % Efficacy) was found to be 100%. The Emax at 4 ppm in the series on Haemonchus contortus (HAEMCO, 4 ppm, 5dat, comparative example, read-out: % Efficacy) amounted to 100%. The Emax at 20 ppm in the series on Haemonchus contortus (HAEMCO, 20 ppm, 5dat, comparative example, read-out: % Efficacy) worked out at 100%. The mortality at 20 ppm in the series on Haemonchus contortus is 100%. The compound also gave a chromatographic logP in series [1] (logP (HCOOH) [a]) of 3.74. Also, the mortality at 20 ppm in the series with Cooperia curticei is 100%. For the same compound, in series [2], the inhibition at 1 ppm is at least 60% and the inhibition at 10 ppm is at least 60%. In addition, the pest or weed control at 20 ppm in the series with Meloidogyne incognita was 100%.
